{
  "source": "paper PMC4275348",
  "about": "(Molecular microbiology, 2014)",
  "key": {"luxN^S184I/S230P": {"biological_target": "T1, luxN^S184I/S230P (Vibrio campbellii, UniProt A7MRY4, S184I/S230P)", "T1 sequence (A7MRY4 1-849 S184I/S230P)": "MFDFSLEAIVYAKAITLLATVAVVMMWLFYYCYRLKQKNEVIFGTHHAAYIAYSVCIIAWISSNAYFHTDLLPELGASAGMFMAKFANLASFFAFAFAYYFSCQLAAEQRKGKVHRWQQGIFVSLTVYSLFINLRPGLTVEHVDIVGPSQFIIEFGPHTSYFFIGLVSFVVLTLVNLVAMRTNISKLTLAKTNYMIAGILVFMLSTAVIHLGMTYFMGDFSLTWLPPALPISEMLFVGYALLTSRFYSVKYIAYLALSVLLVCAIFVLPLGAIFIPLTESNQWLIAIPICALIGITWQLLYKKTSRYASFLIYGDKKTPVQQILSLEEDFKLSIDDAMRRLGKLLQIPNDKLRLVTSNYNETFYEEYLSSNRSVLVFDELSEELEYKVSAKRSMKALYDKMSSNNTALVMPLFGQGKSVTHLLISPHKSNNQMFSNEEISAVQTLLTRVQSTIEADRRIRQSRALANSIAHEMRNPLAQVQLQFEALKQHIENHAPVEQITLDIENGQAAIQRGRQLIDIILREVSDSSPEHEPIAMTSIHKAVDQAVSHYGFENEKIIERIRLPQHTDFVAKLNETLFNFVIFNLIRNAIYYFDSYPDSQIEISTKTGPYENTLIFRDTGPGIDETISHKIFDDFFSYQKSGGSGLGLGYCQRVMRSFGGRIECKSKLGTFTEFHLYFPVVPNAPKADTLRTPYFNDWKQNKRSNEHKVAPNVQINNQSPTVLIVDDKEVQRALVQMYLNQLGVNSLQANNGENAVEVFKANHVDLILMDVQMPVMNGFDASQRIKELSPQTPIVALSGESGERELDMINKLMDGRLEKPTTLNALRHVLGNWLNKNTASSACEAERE", "assay": "Bioluminescence of V. harveyi XK006 carrying luxN S184I/S230P", "assay_type": "cell-based, Vibrio harveyi", "conditions": "10 μM 3O-C10 HSL"}, "luxN^S230P": {"biological_target": "luxN^S230P (Vibrio campbellii, UniProt A7MRY4, S230P)", "conditions": "10 μM 3O-C10 HSL"}, "luxN^T159I/Y193K": {"biological_target": "T2, luxN^T159I/Y193K (Vibrio campbellii, UniProt A7MRY4, N193K/T159I)", "T2 sequence (A7MRY4 1-849 T159I/N193K)": "T1 sequence (A7MRY4 1-849 S184I/S230P) with T159I, I184S, N193K, P230S", "assay": "Bioluminescence of V. harveyi XK006 carrying luxN T159I/Y193K", "assay_type": "cell-based, Vibrio harveyi", "conditions": "10 μM 3O-C10 HSL"}, "LuxN^H210Q": {"biological_target": "T3, LuxN^H210Q (Vibrio campbellii, UniProt A7MRY4, H210Q)", "T3 sequence (A7MRY4 1-849 H210Q)": "T1 sequence (A7MRY4 1-849 S184I/S230P) with I184S, H210Q, P230S", "assay": "Bioluminescence of V. harveyi XK006 carrying luxN H210Q", "assay_type": "cell-based, Vibrio harveyi", "conditions": "1 μM AHL"}, "LuxN [1]": {"biological_target": "T4, LuxN (Vibrio campbellii, UniProt A7MRY4)", "conditions": "1 μM AHL; V. harveyi TL25"}, "LuxN^H210T": {"biological_target": "T5, LuxN^H210T (Vibrio campbellii, UniProt A7MRY4, H210T)", "T5 sequence (A7MRY4 1-849 H210T)": "T1 sequence (A7MRY4 1-849 S184I/S230P) with I184S, H210T, P230S", "assay": "Bioluminescence of V. harveyi XK006 carrying luxN H210T", "assay_type": "cell-based, Vibrio harveyi", "conditions": "1 μM AHL"}, "Kin^off LuxN mutants": {"system": "Kin^off LuxN mutants", "assay": "Bioluminescence of V. harveyi XK847 harboring Kin^off luxN alleles", "assay_type": "cell-based, Vibrio harveyi"}, "luxN^L166A/H210N": {"biological_target": "luxN^L166A/H210N (Vibrio campbellii, UniProt A7MRY4, H210N/L166A)", "conditions": "AHLs added at 1 μM"}, "[2]": {"biological_target": "LuxN^L166A mutant with Ser209 (Vibrio campbellii, UniProt A7MRY4, I209S/L166A)", "conditions": "AHLs added at 1 μM"}, "WT AinR": {"system": "WT AinR", "assay": "Bioluminescence of V. harveyi XK006 harboring WT V. fischeri ainR", "assay_type": "cell-based, Vibrio fischeri", "conditions": "AHLs added at 1 μM"}, "LuxN [3]": {"biological_target": "T4, LuxN", "assay_type": "cell-based, Vibrio harveyi", "conditions": "1 μM AHL with 20 nM AI-1; V. harveyi TL25"}, "AinR^Q204H": {"system": "AinR^Q204H", "assay": "Bioluminescence of V. harveyi XK006 harboring ainR Q204H", "assay_type": "cell-based, Vibrio fischeri"}, "LuxN^L166A": {"biological_target": "LuxN^L166A (Vibrio campbellii, UniProt A7MRY4, L166A)"}, "WT LuxN": {"biological_target": "WT LuxN (Vibrio campbellii, UniProt A7MRY4)", "conditions": "XK006 carrying WT luxN"}},
  "note": "Residue numbers refer to the chain shown, from its start.",
  "data": [
    {"compound": "CCCCCCCC(=O)CC(=O)N[C@H]1CCOC1=O", "note": "[3O-C10 HSL]", "values": [
      {"measurement": "increase in light production", "setting": "luxN^S184I/S230P", "value": 10, "unit": "fold"},
      {"measurement": "induction of light production", "setting": "luxN^S230P", "value": 20, "unit": "fold"},
      {"measurement": "increase in light production", "setting": "luxN^T159I/Y193K", "value": 20, "unit": "fold"}
    ]},
    {"compound": "CCCC(=O)N[C@H]1CCOC1=O", "note": "[C4 HSL]", "values": [
      {"measurement": "induction of light production", "setting": "LuxN^H210Q", "value": 30, "unit": "fold"},
      {"measurement": "induction of light production", "setting": "LuxN [1]", "value": "did not induce light production"},
      {"measurement": "induction of light production", "setting": "LuxN^H210T", "value": 100, "unit": "fold"},
      {"measurement": "light production / detection", "setting": "Kin^off LuxN mutants", "value": "also detected"}
    ]},
    {"compound": "CCCCCC(O)CC(=O)N[C@H]1CCOC1=O", "note": "(some centres unmarked) [3OH-C8 HSL]", "values": [
      {"measurement": "light production", "setting": "luxN^L166A/H210N", "value": "Significantly less light"},
      {"measurement": "ligand detection (light production)", "setting": "[2]", "value": "restricted to 3OH-C8 HSL"},
      {"measurement": "light production", "setting": "WT AinR", "value": "light production was induced"},
      {"measurement": "reduction in light production", "setting": "LuxN [3]", "value": "five-fold"},
      {"measurement": "detection (light production)", "setting": "AinR^Q204H", "value": "lost the ability to detect"},
      {"measurement": "detection (light production)", "setting": "LuxN^L166A", "value": "robustly detects"}
    ]},
    {"compound": "C[C@@H](O)CC(=O)N[C@H]1CCOC1=O", "note": "[(S)-3OH-C4 HSL]", "values": [
      {"measurement": "response (dose-dependent light production)", "setting": "WT LuxN", "value": "did not respond"}
    ]}
  ]
}
